# From ChEMBL document CHEMBL3885861, “Open TG-GATES”
# Organism: Rattus norvegicus
# Assay: Open TG-GATES - Regimen: Single
# Format: toxicity, organism-based, Sprague-Dawley
# Parameters: regimen Single, gender Male, age 6 weeks
# Settings: in vivo, po, 30 mg/kg, route gavage, dose level Middle; for APTT / Bas / Eos / Fbg / Ht / Lym / MCH / MCHC / MCV / Mono / Neu / PT / Plat / RBC / Ret / WBC: tissue Blood; for KIDNEY_L / KIDNEY_R / KIDNEY_TOTAL: tissue Kidney; for LIVER: tissue Liver; for ALP / ALT / AST / BUN / CRE / Ca / Cl / DBIL / GLC / IP / K / LDH / Na / PL / RALB / TBIL / TC / TG / TP / gamma-GTP: tissue Plasma
smiles,measurement,setting,value
Cc1cccc(Nc2cc(Cl)nc(SCC(=O)O)n2)c1C [PIRINIXIC ACID],TERMINAL_BW,3 h,204.3 g
same,APTT,3 h,17.1 s
same,Bas,3 h,0%
same,Eos,3 h,0.4%
same,Fbg,3 h,275 mg/dL
same,Ht,3 h,39.7%
same,Lym,3 h,77.6%
same,MCH,3 h,21.5 pg
same,MCHC,3 h,34.3%
same,MCV,3 h,62.6 fL
same,Mono,3 h,3%
same,Neu,3 h,18%
same,PT,3 h,12.5 s
same,Plat,3 h,130.4 x10_4/uL
same,RBC,3 h,634 x10_4/ul
same,Ret,3 h,7.9%
same,WBC,3 h,74.5 x10_2/uL
same,KIDNEY_L,3 h,0.9 g
same,KIDNEY_R,3 h,0.9 g
same,KIDNEY_TOTAL,3 h,1.8 g
same,LIVER,3 h,8.9 g
same,ALP,3 h,1689.8 IU/L
same,ALT,3 h,49.2 IU/L
same,AST,3 h,74 IU/L
same,BUN,3 h,9 mg/dL
same,CRE,3 h,0.1 mg/dL
same,Ca,3 h,11 mg/dL
same,Cl,3 h,103.8 meq/L
same,DBIL,3 h,0.088 mg/dL
same,GLC,3 h,184.2 mg/dL
same,IP,3 h,10.1 mg/dL
same,K,3 h,3.9 meq/L
same,LDH,3 h,65.6 IU/L
same,Na,3 h,139.8 meq/L
same,PL,3 h,172.4 mg/dL
same,RALB,3 h,2.7 g/dL
same,TBIL,3 h,0.052 mg/dL
same,TC,3 h,79 mg/dL
same,TG,3 h,251.8 mg/dL
same,TP,3 h,5.8 g/dL
same,gamma-GTP,3 h,1 IU/L
same,TERMINAL_BW,6 h,205.1 g
same,APTT,6 h,16.2 s
same,Bas,6 h,0%
same,Eos,6 h,1%
same,Fbg,6 h,274.6 mg/dL
same,Ht,6 h,40.3%
same,Lym,6 h,70.8%
same,MCH,6 h,20.8 pg
same,MCHC,6 h,34.1%
same,MCV,6 h,61 fL
same,Mono,6 h,2.4%
same,Neu,6 h,25.4%
same,PT,6 h,12.4 s
same,Plat,6 h,117.5 x10_4/uL
same,RBC,6 h,661.2 x10_4/ul
same,Ret,6 h,7.5%
same,WBC,6 h,71.7 x10_2/uL
same,KIDNEY_L,6 h,0.9 g
same,KIDNEY_R,6 h,0.9 g
same,KIDNEY_TOTAL,6 h,1.7 g
same,LIVER,6 h,8.2 g
same,ALP,6 h,1624.2 IU/L
same,ALT,6 h,46.6 IU/L
same,AST,6 h,77.8 IU/L
same,BUN,6 h,8.8 mg/dL
same,CRE,6 h,0.2 mg/dL
same,Ca,6 h,10.7 mg/dL
same,Cl,6 h,105.4 meq/L
same,DBIL,6 h,0.036 mg/dL
same,GLC,6 h,177.8 mg/dL
same,IP,6 h,10.7 mg/dL
same,K,6 h,4.3 meq/L
same,LDH,6 h,59.8 IU/L
same,Na,6 h,139.6 meq/L
same,PL,6 h,149.4 mg/dL
same,RALB,6 h,2.6 g/dL
same,TBIL,6 h,0.046 mg/dL
same,TC,6 h,76.4 mg/dL
same,TG,6 h,115.4 mg/dL
same,TP,6 h,5.4 g/dL
same,gamma-GTP,6 h,1.4 IU/L
same,TERMINAL_BW,9 h,204.7 g
same,APTT,9 h,15.6 s
same,Bas,9 h,0%
same,Eos,9 h,0.6%
same,Fbg,9 h,267.4 mg/dL
same,Ht,9 h,38.8%
same,Lym,9 h,78.8%
same,MCH,9 h,21.1 pg
same,MCHC,9 h,34.3%
same,MCV,9 h,61.4 fL
same,Mono,9 h,2%
same,Neu,9 h,18%
same,PT,9 h,12.3 s
same,Plat,9 h,121.4 x10_4/uL
same,RBC,9 h,631.6 x10_4/ul
same,Ret,9 h,7.8%
same,WBC,9 h,66.7 x10_2/uL
same,KIDNEY_L,9 h,0.9 g
same,KIDNEY_R,9 h,0.8 g
same,KIDNEY_TOTAL,9 h,1.7 g
same,LIVER,9 h,7.9 g
same,ALP,9 h,1566.2 IU/L
same,ALT,9 h,35.8 IU/L
same,AST,9 h,65.8 IU/L
same,BUN,9 h,9.6 mg/dL
same,CRE,9 h,0.2 mg/dL
same,Ca,9 h,10.5 mg/dL
same,Cl,9 h,104.2 meq/L
same,DBIL,9 h,0.026 mg/dL
same,GLC,9 h,185.8 mg/dL
same,IP,9 h,11.1 mg/dL
same,K,9 h,3.9 meq/L
same,LDH,9 h,61.6 IU/L
same,Na,9 h,140.6 meq/L
same,PL,9 h,122.8 mg/dL
same,RALB,9 h,2.6 g/dL
same,TBIL,9 h,0.038 mg/dL
same,TC,9 h,67.8 mg/dL
same,TG,9 h,68.8 mg/dL
same,TP,9 h,5.3 g/dL
same,gamma-GTP,9 h,1.4 IU/L
same,TERMINAL_BW,24 h,211.1 g
same,APTT,24 h,16.1 s
same,Bas,24 h,0%
same,Eos,24 h,1.2%
same,Fbg,24 h,216.4 mg/dL
same,Ht,24 h,39.1%
same,Lym,24 h,76.2%
same,MCH,24 h,21.4 pg
same,MCHC,24 h,34.5%
same,MCV,24 h,61.9 fL
same,Mono,24 h,3%
same,Neu,24 h,19.6%
same,PT,24 h,13 s
same,Plat,24 h,110.1 x10_4/uL
same,RBC,24 h,632.4 x10_4/ul
same,Ret,24 h,6.8%
same,WBC,24 h,75.4 x10_2/uL
same,KIDNEY_L,24 h,0.9 g
same,KIDNEY_R,24 h,0.9 g
same,KIDNEY_TOTAL,24 h,1.8 g
same,LIVER,24 h,10.2 g
same,ALP,24 h,1775.4 IU/L
same,ALT,24 h,51.8 IU/L
same,AST,24 h,73.4 IU/L
same,BUN,24 h,14.4 mg/dL
same,CRE,24 h,0.2 mg/dL
same,Ca,24 h,10.7 mg/dL
same,Cl,24 h,104 meq/L
same,DBIL,24 h,0.018 mg/dL
same,GLC,24 h,189.6 mg/dL
same,IP,24 h,8.6 mg/dL
same,K,24 h,4 meq/L
same,LDH,24 h,58 IU/L
same,Na,24 h,141.6 meq/L
same,PL,24 h,111.4 mg/dL
same,RALB,24 h,2.6 g/dL
same,TBIL,24 h,0.03 mg/dL
same,TC,24 h,59.2 mg/dL
same,TG,24 h,37.6 mg/dL
same,TP,24 h,5.3 g/dL
same,gamma-GTP,24 h,1.2 IU/L
